This is an account of results in PMC7370187, “Screening of an Epigenetic Drug Library Identifies 4-((hydroxyamino)carbonyl)-N-(2-hydroxyethyl)-N-Phenyl-Benzeneacetamide that Reduces Melanin Synthesis by Inhibiting Tyrosinase Activity Independently of Epigenetic Mechanisms” (International Journal of Molecular Sciences, 2020).

SMILES strings stand for the structures. “Also recorded” adds a separate entry of the source.

Series [1] has as its system cellular melanin production. Also noted: method as in earlier work. Conditions: ref [55] Baek et al.; cited from earlier work.
For another series, the system named is mushroom TYR. Also noted: method as in earlier work. The note with it: ref [55] Baek et al.; read-out: IC50, catalytic activity of mushroom TYR in vitro; cited from earlier work.
The subject of series [2] is B16-F10 murine melanoma cells. The series is described as follows: Screening assay for overall melanin synthesis (OD 400 nm) in α-MSH-stimulated cells. It is filed as cell-based. Conditions: 100 nM α-MSH, 72 h; for relative melanin synthesis (OD 400 nm): drug 1.0 μM. On the procedure:
For the screening assay, B16-F10 cells were plated in 96-well plates (3 × 10^3 cells per well) and cultured for 24 h. The cells were then treated with a test drug at 1.0 μM for 60 min, and subsequently stimulated with 0.1 μM α-MSH for 72 h. Overall melanin synthesis was estimated by measuring the absorbance of each well (cells plus medium, without cell lysis) at 400 nm using a Spectrostar Nano microplate reader (BMG LABTECH GmbH, Ortenberg, Germany).

The next series relates to B16-F10 cells. The series is described as follows: Cell viability assay (MTT). It is filed as cell-based, murine. Conditions: 48 h; for relative viability: drug 1.0 μM. On the procedure: Cell viability was evaluated using 3-(4,5-dimethylthiazol-2-yl)-2,5-diphenyltetrazolium bromide (MTT). After treatment of B16-F10 cells with each drug for 48 h, cells were washed with phosphate-buffered saline (PBS) and incubated for 2 h in the culture medium containing 1 mg∙mL^−1 MTT (Amresco, Solon, OH, USA). The medium was discarded by aspiration, the formazan dye deposited inside the cells was extracted with isopropanol, and absorbance was measured at 595 nm using a Spectrostar Nano microplate reader.

Series [3] concerns the target T1, human TYR (Homo sapiens, UniProt P14679).
T1 construct: expressed in transfected cells; Triton X-100 lysate supernatant
T1 sequence (P14679 19-529): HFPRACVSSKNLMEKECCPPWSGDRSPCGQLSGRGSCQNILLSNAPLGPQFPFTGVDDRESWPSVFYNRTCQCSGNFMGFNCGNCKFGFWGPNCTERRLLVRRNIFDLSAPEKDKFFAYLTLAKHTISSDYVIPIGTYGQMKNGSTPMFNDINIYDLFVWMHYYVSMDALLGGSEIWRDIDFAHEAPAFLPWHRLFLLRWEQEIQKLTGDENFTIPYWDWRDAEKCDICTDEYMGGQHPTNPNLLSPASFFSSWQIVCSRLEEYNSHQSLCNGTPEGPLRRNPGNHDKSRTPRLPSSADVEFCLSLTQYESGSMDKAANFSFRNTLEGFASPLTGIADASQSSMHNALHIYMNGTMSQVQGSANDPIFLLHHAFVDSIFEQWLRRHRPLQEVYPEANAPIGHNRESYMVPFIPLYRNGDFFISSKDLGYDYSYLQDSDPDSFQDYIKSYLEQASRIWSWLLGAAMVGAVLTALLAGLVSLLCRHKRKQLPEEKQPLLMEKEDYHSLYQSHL
The series is described as follows: In vitro TYR catalytic activity assay, lysate of HEK293-TYR cells. The class given is biochemical. The note with it: each drug at 1.0 μM, library screening. As for the experimental part:
(§1) To examine the direct effect of a drug on the catalytic activity of TYR, in vitro experiments were undertaken. Lysate of B16F10 cells stimulated with α-MSH for 24 h was used as a murine TYR preparation. Human TYR preparation was the lysate of human embryonic kidney 293 cells constitutively expressing human TYR (HEK293-TYR). […] The TYR activity assay mixture (200 μL) consisted of 100 mM sodium phosphate buffer (pH 6.8), TYR preparation (40 μg protein), a drug at various concentrations, 1.0 mM L-tyrosine, and 42 μΜ L-DOPA. For enzyme kinetic study, the concentrations of L-tyrosine plus L-DOPA were varied while their relative ratio was kept the same as the standard assay condition. […] The reactions were also performed in the absence of a TYR preparation to correct for the effects of non-enzymatic reactions. Enzyme activity was calculated as follows: activity (% control) = (C−D)/(A−B) × 100, where A and B are the absorbance changes of the control group with and without enzyme, respectively, while C and D are the absorbance changes of the test group with and without enzyme, respectively.

Series [4] has as its target T1, human TYR. Also noted: method as in PMID 31382682, PMID 23476698, PMID 26914711. Conditions: HEK293-TYR; ref [43],[45],[47]; cited from earlier work.
Series [5] is described as follows: Copper chelating activity assay (pyrocatechol violet). The class given is physicochemical. Conditions: 200 μM test compound, 200 μM copper ions, 200 μM pyrocatechol violet, absorbance 632 nm. As for the experimental part:
Copper chelating activity was determined by using pyrocatechol violet (Sigma-Aldrich). […] The reaction mixture containing a potential chelator at varied concentrations, 200 μM CuSO4, and 200 μM pyrocatechol violet was incubated at 25 °C for 20 min, and its absorption spectra were recorded using a Shimadzu UV-1650PC spectrophotometer (Shimadzu Corporation, Kyoto, Japan). Copper chelating activity was evaluated by the change in the absorbance of pyrocatechol violet at 632 nm.

A further series has as its target T2, murine TYR (Mus musculus, UniProt P11344).
T2 construct: One is the protein extract of B16F10 cells stimulated by α-MSH and thus expresses a high amount of TYR; endogenous in cells; host or cells: B16F10 murine melanoma cells stimulated with α-MSH for 24 h; Triton X-100 lysate supernatant
T2 sequence (P11344 19-533): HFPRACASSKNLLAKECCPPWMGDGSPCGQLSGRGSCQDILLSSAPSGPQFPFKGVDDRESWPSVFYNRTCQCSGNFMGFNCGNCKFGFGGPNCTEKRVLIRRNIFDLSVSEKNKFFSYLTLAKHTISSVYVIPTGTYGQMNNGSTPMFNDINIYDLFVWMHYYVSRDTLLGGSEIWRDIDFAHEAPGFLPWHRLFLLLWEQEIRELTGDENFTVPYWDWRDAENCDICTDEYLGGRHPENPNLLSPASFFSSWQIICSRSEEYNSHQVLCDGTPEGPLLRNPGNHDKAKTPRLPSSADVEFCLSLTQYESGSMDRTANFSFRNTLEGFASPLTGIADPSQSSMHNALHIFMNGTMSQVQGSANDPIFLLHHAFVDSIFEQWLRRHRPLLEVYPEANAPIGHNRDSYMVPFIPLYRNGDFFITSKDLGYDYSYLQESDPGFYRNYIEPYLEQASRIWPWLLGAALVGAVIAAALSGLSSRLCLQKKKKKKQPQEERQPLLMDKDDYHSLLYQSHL
The series is described as follows: In vitro TYR catalytic activity assay, lysate of α-MSH-stimulated B16F10 cells. It is filed as biochemical. The note with it: murine TYR, varying substrate concentrations. On the procedure: as §1

The subject of the next series is TYR. Briefly: In vitro TYR catalytic activity, murine and human TYR given together (abstract). Conditions: range over human and murine TYR preparations. It is filed as biochemical. On the procedure:
as §1

For `O=C(NO)c1ccc(C(=O)NC23CC4CC(CC(C4)C2)C3)cc1` [1b, N1-Adamantyl-N4-hydroxyterephthal amide], the results for the IC50 (in series [1]; in the series on mushroom TYR) were 7.46 µM and 8.99 µM, respectively.

With `O=C(NO)c1ccc(NC(=O)C23CC4CC(CC(C4)C2)C3)cc1` [1a, 4-(Adamantanecarboxamido)-N-hydroxybenzamide], the half-inhibitory concentration (IC50) in series [1] was 3.78 µM; with mushroom TYR, 12 µM.

On to `O=C(C=Cc1cccc(C(=O)NO)c1)NO` [H4, N-hydroxy-3-(3-(hydroxyamino)-3-oxo-1-propen-1-yl)-benzamide], for which, in series [2], the “relative melanin synthesis (OD 400 nm)” value is “markedly inhibited cellular melanin synthesis”. Further, the “melanin synthesis (OD 400)” value in [2] (drug at varied concentrations) was “attenuated by both drugs in a dose-dependent manner”. In addition, the relative viability result in the series with B16-F10 cells is reported as “without reducing cell viability”. Besides, the “cytotoxicity (relative viability)” value with B16-F10 cells (drug at various concentrations) is “showed toxicity at 3 μM and higher concentrations”. Besides, on human TYR [3], the “human TYR inhibitory effect” value is reported as “potent TYR inhibitory effects”.

`O=C(O)/C=C/c1ccc(O)cc1` [p-coumaric acid]: the half-inhibitory concentration (IC50) at human TYR [4] was 4 µM.

On to `COc1ccc(Cn2ccc3ccc(C(=O)NO)cc32)cc1` [A5, N-Hydroxy-1-((4-methoxyphenyl)methyl)-1H-indole-6-carboxamide], for which the “relative melanin synthesis (OD 400 nm)” value in [2] was “showed no melanin inhibitory action”. Moreover, the “human TYR inhibitory effect” value at human TYR [3] is recorded as “potent TYR inhibitory effects; also recorded: showed excellent inhibitory action”.

Turning to `O=c1cc(CO)occ1O` [kojic acid], in [5], the copper ions chelated amounted to 36%. Also, the IC50 in [1] was 2000 µM.

Consider `OC[C@H]1O[C@@H](Oc2ccc(O)cc2)[C@H](O)[C@@H](O)[C@@H]1O` [β-arbutin, 4-hydroxyphenyl-β-D-glucopyranoside], for which, at murine TYR, the “inhibition type (Lineweaver–Burk plots)” value is listed as “competitive inhibition”. Besides, the copper ions chelated result in series [5] is “did not show copper chelating activity”. Besides, in the series with TYR, the IC50 lay within 500 to 700 µM.

As to `COc1cc2c(NC3CCN(C(C)C)CC3)nc(C3CCCCC3)nc2cc1OCCCN1CCCC1` [C3, UNC0638], the relative viability entry in the series on B16-F10 cells is “showed strong cytotoxicity”.

Take `O=c1cc(-c2ccc(O)c(O)c2)oc2cc(OS(=O)(=O)O)cc(O)c12` [luteolin 7-sulfate]: on human TYR [4], the IC50 was 8.2 µM.

`CCN(CC)Cc1ccc2cc(COC(=O)Nc3ccc(C(=O)NO)cc3)ccc2c1.Cl.O` [C10, (6-((diethylamino)methyl)naphthalen-2-yl)methyl (4-(hydroxycarbamoyl)phenyl)carbamate hydrochloride hydrate]: at human TYR [3], the “human TYR inhibitory effect” value is given as “potent TYR inhibitory effects; also recorded: showed excellent inhibitory action”.

For the compound `Cn1c(C=CC(=O)NO)ccc1C=CC(=O)c1cccc(F)c1` [M3, 3-(5-(3-(3-Fluorophenyl)-3-oxopropen-1-yl)-1-methyl-1H-pyrrol-2-yl)-N-hydroxy-2-propenamide], in series [2], the “relative melanin synthesis (OD 400 nm)” value was “showed no melanin inhibitory action”. In addition, the “human TYR inhibitory effect” value on human TYR [3] is “potent TYR inhibitory effects; also recorded: showed excellent inhibitory action”.

A word on the IC50: it is the concentration that inhibits the measured activity by half.
